Laboratory results taken from ChEMBL document CHEMBL5233248, “Resveratrol - A comprehensive review of recent advances in anticancer drug design and development” (Eur J Med Chem, 2020).
Where “and” joins values, the source holds several entries; their conditions need not be identical. Equal values may be shown once. Residues, ends and D or L forms follow the SMILES beside them. *: point of attachment. X1 = Oc1cc(O)cc(/C=C/c2ccc(O*)cc2)c1

How the values were obtained:
L1210 = assay: Anticancer activity against mouse L1210 cells assessed as cell growth inhibition incubated for 48 hrs by MTT assay; type: functional, cell-based; conditions: L1210, 48 h
[1] = Anticancer activity against human Molt 4/C8 cells assessed as cell growth inhibition incubated for 48 hrs by MTT assay; type: functional, cell-based; conditions: Molt4/C8, 48 h
CCRF-CEM [2] = assay: Anticancer activity against human CEM cells assessed as cell growth inhibition incubated for 48 hrs by MTT assay; type: functional, cell-based
CCRF-CEM [3] = assay: Anticancer activity against human CEM cells assessed as cell growth inhibition incubated for 48 hrs by Tryphan blue assay; type: functional, cell-based
A549 [4] = assay: Anticancer activity against human A549 cells assessed as cell growth inhibition incubated for 48 hrs by Tryphan blue assay; type: functional, cell-based; conditions: A549, 48 h
[5] = Potency index, ratio of test compound IC50 to Melphalan IC50 for antiproliferative activity against […] L1210 cells; type: functional
MCF7 [6] = assay: Anticancer activity against human MCF7 cells assessed as cell growth inhibition incubated for 24 hrs by MTT assay; type: functional, cell-based; conditions: MCF7, 24 h
HT-29 [7] = assay: Anticancer activity against human HT-29 cells assessed as cell growth inhibition incubated for 24 hrs by MTT assay; type: functional, cell-based; conditions: Homo sapiens, HT-29, 24 h
HepG2 [8] = assay: Anticancer activity against human HepG2 cells assessed as cell growth inhibition incubated for 24 hrs by MTT assay; type: functional, cell-based; conditions: HepG2, 24 h
SK-BR-3 = assay: Anticancer activity against human SK-BR-3 cells assessed as cell growth inhibition incubated for 24 hrs by MTT assay; type: functional, cell-based; conditions: SK-BR-3, 24 h
MCF7 [9] = assay: Anticancer activity against human MCF7 cells assessed as cell growth inhibition incubated for 48 hrs by MTS assay; type: functional, cell-based; conditions: MCF7, 48 h
[10] = Cytotoxicity activity against human CCD-1059Sk cells assessed as cell growth inhibition incubated for 48 hrs by MTS assay; type: toxicity, cell-based
[11] = Cytotoxicity activity against human CCD-1059Sk cells assessed as cell growth inhibition incubated for 48 hrs in presence of Curcumin by MTS assay; type: toxicity, cell-based
HCT-116 [12] = assay: Anticancer activity against human HCT-116 cells assessed as cell growth inhibition incubated for 5 days by SRB assay; type: functional, cell-based; conditions: HCT-116, 120 h
A2780 [13] = assay: Anticancer activity against human A2780 cells assessed as cell growth inhibition incubated for 24 hrs […] by MTT assay; type: functional, cell-based; conditions: A2780, 24 h
OVCAR-3 = assay: Anticancer activity against human OVCAR-3 cells assessed as cell growth inhibition incubated for 24 hrs […] by MTT assay; type: functional, cell-based; conditions: OVCAR-3, 24 h
SK-OV-3 [14] = assay: Anticancer activity against human SK-OV-3 cells assessed as cell growth inhibition incubated for 24 hrs […] by MTT assay; type: functional, cell-based; conditions: SK-OV-3, 24 h
[15] = Anticancer activity against human HOSE cells assessed as cell growth inhibition incubated for 24 hrs […] by MTT assay; type: functional, cell-based
A2780 [16] = assay: Anticancer activity against human A2780 cells assessed as cell growth inhibition by LDH release assay; type: functional, cell-based
[17] = Anticancer activity against human HOSE cells assessed as cell growth inhibition by LDH release assay; type: functional, cell-based
[18] = Anticancer activity against human Peritoneal mesothelial cells assessed as cell growth inhibition incubated for 24 hrs […] by MTT assay; type: functional, cell-based
[19] = Anticancer activity against human Peritoneal mesothelial cells assessed as cell growth inhibition by LDH release assay; type: functional, cell-based
[20] = Anticancer activity against human AZ-AHR cells assessed as cell growth inhibition incubate for 24 hrs by MTT assay; type: functional, cell-based
CYP1A = CYP1A (Homo sapiens, UniProt P04798+P05177); assay: Inhibtion of CYP1A (unknown origin); type: ADME, protein assay
HCT-116 [21] = assay: Anticancer activity against human HCT-116 cells assessed as cell growth inhibition; type: functional, cell-based
HeLa [22] = assay: Anticancer activity against human HeLa cells assessed as cell growth inhibition measured after 72 hrs by MTT assay; type: functional, cell-based; conditions: read-out: IC50
A549 [23] = assay: Anticancer activity against human A549 cells assessed as cell growth inhibition measured after 72 hrs by MTT assay; type: functional, cell-based
[24] = Anticancer activity against Lung adenocarcinoma cell line assessed as cell growth inhibition measured after 72 hrs by MTT assay; type: functional, cell-based
HT-29 [25] = assay: Anticancer activity against human HT-29 cells assessed as cell growth inhibition incubated for 3 days by MTT assay; type: functional, cell-based; conditions: HT-29, 72 h
MCF7 [26] = assay: Anticancer activity against human MCF7 cells assessed as cell growth inhibition incubated for 3 days by MTT assay; type: functional, cell-based; conditions: MCF7, 72 h
HEK293 = assay: Anticancer activity against human HEK293 cells assessed as cell growth inhibition incubated for 3 days by MTT assay; type: functional, cell-based; conditions: HEK293, 72 h
HepG2 [27] = assay: Anticancer activity against human HepG2 cells assessed as cell growth inhibition incubated for 3 days by MTT assay; type: functional, cell-based; conditions: HepG2, 72 h
U-251 = assay: Anticancer activity against human U-251MG cells assessed as cell growth inhibition by CyQuant assay; type: functional, cell-based
MDA-MB-231 [28] = assay: Anticancer activity against human MDA-MB-231 cells assessed as cell growth inhibition by CyQuant assay; type: functional, cell-based
MCF7 [29] = assay: Anticancer activity against human MCF7 cells assessed as cell growth inhibition by CyQuant assay; type: functional, cell-based
PANC-1 = assay: Anticancer activity against human PANC-1 cells assessed as cell growth inhibition by CyQuant assay; type: functional, cell-based
[30] = Cytotoxicity against mouse NIH3T3 cells assessed as cell growth inhibition by CyQuant assay; type: toxicity, cell-based
MDA-MB-231 [31] = assay: Anticancer activity against human MDA-MB-231 cells assessed as reduction in cell viability measured after 48 hrs at 150 uM by MTT assay relative to control; type: functional
ASPC1 = assay: Anticancer activity against human ASPC1 cells assessed as cell growth inhibition incubated for 72 hrs by MTT assay; type: functional, cell-based; conditions: ASPC1, 72 h
BXPC-3 = assay: Anticancer activity against human BXPC-3 cells assessed as cell growth inhibition incubated for 72 hrs by MTT assay; type: functional, cell-based; conditions: BXPC-3, 72 h
Capan-2 = assay: Anticancer activity against human Capan-2 cells assessed as cell growth inhibition incubated for 72 hrs by MTT assay; type: functional, cell-based; conditions: Capan-2, 72 h
MCF-12A = assay: Anticancer activity against human MCF-12A cells assessed as reduction of cell viability incubated for 48 hrs by MTT assay; type: functional, cell-based
MCF7 [32] = assay: Anticancer activity against human MCF7 cells assessed as reduction of cell viability incubated for 48 hrs by MTT assay; type: functional, cell-based; conditions: MCF7, 48 h
HaCaT = assay: Anticancer activity against human HaCaT cells assessed as reduction of cell viability incubated for 48 hrs by MTT assay; type: functional, cell-based
A-431 = assay: Anticancer activity against human A-431 cells assessed as reduction of cell viability incubated for 48 hrs by MTT assay; type: functional, cell-based; conditions: A-431, 48 h
[33] = Growth inhibition of human leukaemia cell line; type: functional
Renal cancer cell line = assay: Growth inhibition of human Renal cancer cell line; type: functional
SK-OV-3 [34] = assay: Anticancer activity against human SK-OV-3 assessed as cell growth inhibition incubated for 72 hrs by MTT assay; type: functional, cell-based; conditions: SK-OV-3, 72 h
HeLa [35] = assay: Anticancer activity against human HeLa cells assessed as cell growth inhibition; type: functional, cell-based
MDA-MB-231 [36] = assay: Anticancer activity against human MDA-MB-231 cells assessed as cell growth inhibition incubated for 24 hrs by MTT assay; type: functional, cell-based; conditions: MDA-MB-231, 24 h
[37] = Cytotoxicity against human MCF-10A cells assessed as cell growth inhibition incubated for 24 hrs by MTT assay; type: toxicity, cell-based
HeLa [38] = assay: Anticancer activity against human HeLa cells assessed as cell growth inhibition incubated for 48 hrs by MTT assay; type: functional, cell-based
HL-60 = assay: Anticancer activity against human HL-60 cells assessed as cell growth inhibition incubated for 48 hrs by MTT assay; type: functional, cell-based; conditions: HL-60, 48 h
MCF7 [39] = assay: cells; conditions: Homo sapiens, MCF7, 48 h
Description: Anticancer activity against human MCF7 cells assessed as cell growth inhibition incubated for 48 hrs in presence of Curcumin by MTS assay

Ishikawa = assay: cells; conditions: Homo sapiens
Description: Anti-tumor activity against human ishikawa cells assessed as anti-estrogenic potential

HT-29 [40] = assay: cells; conditions: Homo sapiens, HT-29, 48 h
Description: Anti cancer activity against human HT-29 cell assessed as cell growth inhibition incubated for 48 hrs by Brdu assay

Caco-2 = assay: cells; conditions: Homo sapiens, Caco-2, 48 h
Description: Anti cancer activity against human Caco-2 cell assessed as cell growth inhibition incubated for 48 hrs by Brdu assay

HepG2 [41] = assay: cells; conditions: Homo sapiens, HepG2, 48 h
Description: Anti cancer activity against human HepG2 cell assessed as cell growth inhibition incubated for 48 hrs by Brdu assay

HCT-116 [42] = assay: Anticancer activity against human HCT-116 assessed as cell growth inhibition incubated for 72 hrs by MTT assay; type: functional, cell-based; conditions: HCT-116, 72 h
MCF7 [43] = assay: Anticancer activity against human MCF7 assessed as cell growth inhibition incubated for 72 hrs by MTT assay; type: functional, cell-based; conditions: MCF7, 72 h
NCI-H460 = assay: Anticancer activity against human NCI-H460 assessed as cell growth inhibition incubated for 72 hrs by MTT assay; type: functional, cell-based; conditions: NCI-H460, 72 h
A549 [44] = assay: Potency index, ratio of test compound IC50 to Resveratrol IC50 for antiproliferative activity against human A549 cells; type: functional
HepG2 [45] = assay: Anticancer activity against human HepG2 cells; type: functional, cell-based
A549 [46] = assay: Anticancer activity against human A549 cells; type: functional, cell-based
HeLa [47] = assay: Anticancer activity against human HeLa cells; type: functional, cell-based
[48] = Selectivity ratio of IC50 for human MCF7 cells to IC50 for human MDA-MB-231 cells; type: toxicity
[49] = Selectivity ratio of IC50 for human MDA-MB-231 cells to IC50 for human MCF7 cells

COc1cc(/C=C/c2ccc(C)cc2)cc(OC)c1OC
IC50 (L1210): 1.2 µM
IC50 [1]: 1.4 µM
IC50 (CCRF-CEM [2]): 3.1 µM
IC50 (CCRF-CEM [3]): 2.6 µM
IC50 (A549 [4]): 2.6 µM
Ratio IC50 [5]: 2

Oc1ccc(/C=C/c2cc(O)cc(O)c2)cc1 [RESVERATROL]
IC50 (MCF7 [6]): 88.2 µM
IC50 (HT-29 [7]): 130 µM
IC50 (HepG2 [8]): 54.9 µM
IC50 (SK-BR-3): 110 µM
IC50 (MCF7 [9]): 40.5 µM
IC50 at 48 h [10]: 188 µM
IC50 at 48 h [11]: 83.1 µM
IC50 (HCT-116 [12]): 31 µM
IC50 (A2780 [13]): 48 µM
IC50 (OVCAR-3): 480 µM
IC50 (SK-OV-3 [14]): 380 µM
IC50 [15]: 485 µM
IC50 (A2780 [16]): 65 µM
IC50 [17]: 421 µM
IC50 [18]: 465 µM
IC50 [19]: 495 µM
IC50 [20]: 19.4 µM
IC50 (CYP1A): 0.23 µM
IC50 (HCT-116 [21]): 19.4 µM
IC50 (HeLa [22]; hela): 98.2 µM and 10.5 µM
IC50 (A549 [23]; a549): 66.2 µM and 10.5 µM
IC50 ([24]; lung adenocarcinoma cell line): 10.5 µM and 24.9 µM
IC50 (HT-29 [25]): 70 µM
IC50 (MCF7 [26]): 127 µM
IC50 (HEK293): 12 µM
IC50 (HepG2 [27]): 355 µM
IC50 (U-251): > 50 µM
IC50 (MDA-MB-231 [28]): 40 µM
IC50 (MCF7 [29]): 68.3 µM
IC50 (PANC-1): 70 µM
IC50 [30]: > 20 µM
Activity (MDA-MB-231 [31]): 58.45%
IC50 (ASPC1): 25 µM
IC50 (BXPC-3): 28 µM
IC50 (Capan-2): 26.5 µM
IC50 (MCF-12A): 93.5 µM
IC50 (MCF7 [32]): 24.6 µM
IC50 (HaCaT): 85.2 µM
IC50 (A-431): 49.4 µM
GI50 [33]: 15.9 µM
GI50 (Renal cancer cell line): 15.9 µM
IC50 (SK-OV-3 [34]): 48 µM
IC50 (HeLa [35]): 137 µM
IC50 (MDA-MB-231 [36]): 90.6 µM
IC50 at 24 h [37]: > 100 µM
IC50 (HeLa [38]): 152 µM
IC50 (HL-60): 64.1 µM
IC50 (MCF7 [39]): 61.7 µM
IC50 (Ishikawa): 3.4 µM
IC50 (HT-29 [40]): 1120 µM
IC50 (Caco-2): 190 µM
IC50 (HepG2 [41]): 111 µM

CC(C)C[C@H](NC(=O)[C@H](CCCCN)NC(=O)[C@H](CO)NC(=O)[C@@H](N)CC(C)C)C(=O)Oc1ccc(/C=C/c2cc(O)cc(O)c2)cc1 (H-LSKL-X1)
IC50 (HCT-116 [42]): 78 µM
IC50 (MCF7 [43]): 58 µM
IC50 (NCI-H460): 41 µM

O=S(=O)(Oc1cc(O)cc(/C=C/c2ccc(O)cc2)c1)c1ccccc1
IC50 (HeLa [22]; Homo sapiens, HeLa, 72 h): 8.16 µM
IC50 (A549 [23]; Homo sapiens, A549, 72 h): 4.38 µM
IC50 ([24]; Lung adenocarcinoma cell line, 72 h): 10.2 µM
Ratio IC50 (A549 [44]): 15

COc1ccc(/C(=C/c2cc(C(F)(F)F)ccc2Cl)C(=O)O)cc1
IC50 (HepG2 [45]): 7.49 µM
IC50 (A549 [46]): 3.77 µM
IC50 (HeLa [47]): 4.79 µM

Oc1ccc(-c2ccc3cc(O)ccc3c2)c(O)c1
Ratio IC50 [48]: 3.3
IC50 (MCF7 [6]): 26.3 µM
IC50 (MDA-MB-231 [36]): 48.2 µM
IC50 at 24 h [37]: > 100 µM
Ratio IC50 [49]: 1.9
